Assay results taken from US7759358B2, “Oral bioavailable prodrugs” (priority 2003, dated 2010).
Entries after “also recorded” stand apart in the source; their conditions may differ.

Tests used:
[1] = In vitro diffusion studies with human skin (flow-through diffusion cells); format: in vitro ADME; settings: for in vitro NTX (equivalent) flux across human skin, NTX-NTX compared with NTX: FIG. 2, mean of nine cells NTX and twelve cells NTX-NTX, three donors, paired Student's t-test p<0.05
Experimental: In vitro diffusion studies were conducted using human skin harvested during abdominal reduction surgery. Skin sections were obtained by using a Padgett dermatome set to 250 microns, and then were frozen at −20° C. until the time of the experiment. A PermeGear flow-through (In-Line, Riegelsville, Pa.) diffusion cell system was used for the diffusion studies. Data was collected utilizing three different specimens of frozen human tissue from three different donors. The human tissues had been frozen from two to five months. Three diffusion cells were used for NTX and four cells were used for NTX-NTX. A receiver buffer of HEPES-buffered Hank's balanced salts solution with gentamicin at pH of 7.3-7.4 was collected at a flow rate of 1.1 mL/h. A saturated NTX or NTX-NTX solution in light mineral oil was applied to the skin cells. Each cell received 0.25 mL of the respective drug solution. Samples were collected in six hour increments for 48 hours. After a six hour sample was obtained, they were stored at 4° C. until solid phase extraction processing. Skin cells were kept at 32° C. with a circulating water bath set to 39° C.
The diffusion data were plotted as the cumulative quantity of NTX equivalents collected in the receiver cell as a function of time. The flux value for a given experiment was computed from Fick's First Law of diffusion:
where Js is the steady-state flux, M is the cumulative amount of intact drug permeating the skin, A is the area of the cell (0.95 cm^2), Kp is the effective permeability coefficient in cm/h, and ΔC is the difference in concentration of NTX or NTX-NTX in the donor and receiver. Buildup in the receiver cell was kept to a minimum throughout the studies.
[…] in the skin and appeared as NTX in the receiver collection. The total amounts of NTX that absorbed through the skin and into the receiver from NTX and NTX-NTX were used in the data analysis. […] Data represent the mean±standard deviation of the nine skin cells with NTX and the twelve skin cells with NTX-NTX. Three individual human donor skin tissues were used. Due to the high variability of human skin, NTX was used with each experiment as a control. The results are reported in NTX nmol equivalents because the NTX-NTX duplex contains two molecules of NTX. Approximately 4% of the NTX flux was from the intact NTX-NTX prodrug, and 96% was NTX originating from the hydrolysis of NTX-NTX.
The data represents the mean±standard deviation of the nine cells with NTX and the twelve cells of NTX-NTX. Three individual human donor skin tissues were used.

[2] = Drug concentration in the skin after the 48 hour diffusion study
[3] = oral therapy; cited from earlier work
[4] = saturated solution in light mineral oil, human skin, 32° C., 48 hours, receiver collection

Row | Compound | in vitro NTX (equivalent) flux across human skin, NTX-NTX compared with NTX [1] | in vitro NTX (equivalent) flux across human skin, NTX-NTX compared with NTX ([1]; listed as duplex prodrug of NTX) | share of the NTX flux that was NTX originating from the hydrolysis of NTX-NTX [1, 4] [%] | share of the NTX flux that was intact NTX-NTX prodrug [1, 4] | total NTX equivalent skin concentration, NTX-NTX-treated skin versus NTX-treated skin ([2]; after 48 hour diffusion study, FIG. 3) | share of the drug extracted from the NTX-NTX-treated skin that was NTX (bioconversion) ([2]; end of the 48 hour study, human skin) [%] | hepatotoxicity [3]
1 | O=C(Oc1ccc2c3c1OC1C(=O)CC[C@@]4(O)[C@@H](C2)N(CC2CC2)CC[C@]314)Oc1ccc2c3c1OC1C(=O)CC[C@@]4(O)[C@@H](C2)N(CC2CC2)CC[C@]314 (stereo partly shown) [NTX-NTX, 3,3′-Di-(N-cyclopropylmethyl-4,5-epoxy-14-hydroxy-morphinan-6-one-3-yl) Carbonate] | significant difference between the means; also recorded: significant increase in NTX equivalent flux | unexpected increase of NTX maximum flux rate | 96 | Approximately 4% | No significant difference | 66 | –
2 | O=C1CC[C@@]2(O)[C@H]3Cc4ccc(O)c5c4[C@@]2(CCN3CC2CC2)[C@H]1O5 [NTX, Naltrexone] | – | – | – | – | – | – | dose-related hepatocellular injury
